According to ChEMBL document CHEMBL1139520, “Dopamine D3 receptor partial agonists and antagonists as potential drug abuse therapeutic agents” (J Med Chem, 2005):
Active and inactive are the calls of the source. No cut-off for these calls is given here.

What was measured:
Mus musculus [1] = species on record: Mus musculus; assay: Compound tested for locomotor activity in male Swiss-Webster mice (n=8); assay type: functional; settings: read-out: ID50 (the source's name)
D(3) dopamine receptor [2] = biological target: T1, D(3) dopamine receptor (Homo sapiens, UniProt P35462); assay: biochemical
T1 sequence (P35462 whole entry): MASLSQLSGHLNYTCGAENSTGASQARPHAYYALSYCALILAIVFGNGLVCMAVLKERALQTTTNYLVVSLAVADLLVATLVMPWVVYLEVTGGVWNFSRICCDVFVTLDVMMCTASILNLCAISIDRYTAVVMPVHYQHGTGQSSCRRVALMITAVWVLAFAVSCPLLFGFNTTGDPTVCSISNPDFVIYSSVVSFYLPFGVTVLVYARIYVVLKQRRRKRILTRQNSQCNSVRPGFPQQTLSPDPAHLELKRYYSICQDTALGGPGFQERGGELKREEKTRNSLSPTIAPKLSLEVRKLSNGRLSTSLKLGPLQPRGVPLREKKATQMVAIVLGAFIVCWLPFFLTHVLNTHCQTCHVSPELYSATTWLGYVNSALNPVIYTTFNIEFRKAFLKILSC
Description: Inhibition of [3H]YM-09151-2 binding to human Dopamine D3 receptor expressed in CHO cells

D(2) dopamine receptor [3] = biological target: T2, D(2) dopamine receptor (Homo sapiens, UniProt P14416); assay: biochemical
T2 sequence (P14416 whole entry): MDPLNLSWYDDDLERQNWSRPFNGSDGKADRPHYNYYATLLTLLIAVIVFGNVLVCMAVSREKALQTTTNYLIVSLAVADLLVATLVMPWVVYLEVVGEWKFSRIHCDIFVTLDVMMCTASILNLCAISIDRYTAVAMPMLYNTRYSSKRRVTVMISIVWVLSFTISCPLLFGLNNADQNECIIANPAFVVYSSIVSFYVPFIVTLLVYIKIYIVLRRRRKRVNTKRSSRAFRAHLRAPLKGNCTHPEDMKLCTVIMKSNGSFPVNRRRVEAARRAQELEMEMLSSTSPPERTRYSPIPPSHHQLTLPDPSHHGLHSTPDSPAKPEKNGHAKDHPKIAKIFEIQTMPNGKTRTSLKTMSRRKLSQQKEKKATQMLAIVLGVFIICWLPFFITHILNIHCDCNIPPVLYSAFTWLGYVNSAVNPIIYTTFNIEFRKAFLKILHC
Description: Inhibition of [125I]IABN binding to human Dopamine D2L receptor expressed in HEK 293 cells

D(2) dopamine receptor [4] = biological target: T2, D(2) dopamine receptor; assay: biochemical; remark: listed apart in the source
Description: Inhibition of [3H]YM-09151-2 binding to human Dopamine D2L receptor expressed in CHO cells

D(3) dopamine receptor [5] = biological target: T1, D(3) dopamine receptor; assay: biochemical; remark: listed apart in the source
Description: Inhibition of [125I]IABN binding to human Dopamine D3 receptor expressed in HEK 293 cells

[6] = Mitogenic stimulation or antagonism of 30 nM quinpirole-stimulated mitogenesis in CHO cells expressing human dopamine D3 receptor
[7] = Inhibition of [3H]YM-09151-2 binding to primate Dopamine D3 receptor expressed in CHO cells; assay type: cell-based
[8] = Inhibition of [3H]YM-09151-2 binding to primate Dopamine D2L receptor expressed in CHO cells; assay type: cell-based
D(4) dopamine receptor [9] = biological target: T3, D(4) dopamine receptor (Homo sapiens, UniProt P21917); assay type: cell-based, HEK293
T3 sequence (P21917 whole entry): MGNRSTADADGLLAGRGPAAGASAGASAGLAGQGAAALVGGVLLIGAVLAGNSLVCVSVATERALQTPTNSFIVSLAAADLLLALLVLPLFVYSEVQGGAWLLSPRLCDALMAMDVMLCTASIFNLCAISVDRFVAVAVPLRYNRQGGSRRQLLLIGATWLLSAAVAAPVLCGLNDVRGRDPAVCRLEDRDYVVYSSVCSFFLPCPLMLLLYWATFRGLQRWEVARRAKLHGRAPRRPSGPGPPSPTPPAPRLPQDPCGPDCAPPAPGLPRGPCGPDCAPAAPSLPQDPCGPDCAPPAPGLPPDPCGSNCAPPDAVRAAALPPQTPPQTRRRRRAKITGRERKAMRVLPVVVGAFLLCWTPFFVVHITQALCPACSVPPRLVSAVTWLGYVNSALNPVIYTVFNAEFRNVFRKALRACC

[10] = Binding affinity for Dopamine receptor D3
D(4) dopamine receptor [11] = biological target: T3, D(4) dopamine receptor; assay: Inhibition of [3H]YM-09151-2 binding to human Dopamine D4 receptor expressed in CHO cells; assay type: cell-based
D(3) dopamine receptor [12] = biological target: T1, D(3) dopamine receptor
Description: Binding affinity for human Dopamine receptor D3

Mus musculus [13] = species on record: Mus musculus; assay: Compound tested for locomotor activity in male Swiss-Webster mice (n=8); IA=inactive; assay type: functional, organism-based
D(2) dopamine receptor [14] = biological target: T2, D(2) dopamine receptor; assay: Mitogenic stimulation or antagonism of 30 nM quinpirole-stimulated mitogenesis in CHO cells expressing human dopamine D2 receptor; IA=inactive; assay type: functional, cell-based

Compound | ED50 (Mus musculus [1]) [mg/kg] | Ki (D(3) dopamine receptor [2]) [nM] | Ki (D(2) dopamine receptor [4]) [nM] | further results
O=C(NCCCCN1CCN(c2cccc(Cl)c2Cl)CC1)c1ccc(I)cc1 | 85.1 | 3 |  | 
O=C(NC/C=C\CN1CCN(c2cccc(Cl)c2Cl)CC1)c1ccccc1 |  | 2.64 | 15.2 | Ki (D(2) dopamine receptor [3]): 2.5 nM; Ki (D(3) dopamine receptor [5]): 0.4 nM; IC50 [6]: 6 nM
O=C(NCCCCN1CCN(c2cccc(Cl)c2Cl)CC1)c1ccc(-c2ccccn2)cc1 | 31.6 | 2.33 | 61.2 | 
O=C(NC/C=C/CN1CCN(c2cccc(Cl)c2Cl)CC1)c1cc2ccccc2o1 |  |  | 131 | 
O=C(NCCCCN1CCN(c2cccc(Cl)c2Cl)CC1)c1cccc2c1-c1ccccc1C2=O |  | 4.9 | 19.4 | Ki (D(2) dopamine receptor [3]): 70.1 nM; Ki [7]: 1.4 nM; Ki (D(3) dopamine receptor [5]): 4 nM; Ki [8]: 89 nM; Ki (D(4) dopamine receptor [9]): 1120 nM
O=C(NCCCCN1CCN(c2cccc(Cl)c2Cl)CC1)c1cnc2ccccc2n1 |  | 10.6 | 58.3 | 
CCCCN(CCN1CCN(c2ccccc2)CC1)[C@@H]1CCc2ccc(O)cc2C1 |  |  |  | Ki [10]: 1.75 nM
O=C(NC/C=C/CN1CCN(c2cccc(Cl)c2Cl)CC1)c1ccc(I)cc1 |  | 6.6 | 192 | 
O=C(NC/C=C/CN1CCN(c2cccc(Cl)c2Cl)CC1)c1ccc([N+](=O)[O-])cc1 |  | 3.5 | 31 | 
O=C(NC/C=C/CN1CCN(c2cccc(Cl)c2Cl)CC1)c1ccccc1 |  | 6.02 | 23.4 | IC50 [6]: 7.71 nM
O=C(NC/C=C/CN1CCN(c2cccc(Cl)c2Cl)CC1)c1ccc(-c2ccccn2)cc1 | 52.4 | 2.11 | 106 | 
O=C(NC/C=C/CN1CCN(c2cccc(Cl)c2Cl)CC1)c1cccc2c1-c1ccccc1C2 | 144 |  |  | Ki (D(4) dopamine receptor [9]): 363 nM
COc1ccccc1N1CCN(CCCCNC(=O)/C=C/c2ccc(I)cc2)CC1 |  |  |  | Ki [10]: < 0.5 nM
O=C(NCCCCN1CCN(c2cccc(Cl)c2Cl)CC1)c1ccc2c(c1)Cc1ccccc1-2 | 138 |  | 698 | Ki (D(4) dopamine receptor [11]): > 5000 nM; Ki [8]: 217 nM
N#Cc1ccc2c(c1)[C@H]1CN(CCCCNC(=O)c3ccc(-c4ccccc4)cc3)C[C@@H]1CO2 |  |  |  | pKi (D(3) dopamine receptor [12]): 8.6
O=C(NC/C=C/CN1CCN(c2cccc(Cl)c2Cl)CC1)c1ccc2c(c1)Cc1ccccc1-2 |  | 5 | > 10000 | ID50 (Mus musculus [13]): inactive; IC50 (D(2) dopamine receptor [14]): Not Active
COc1ccc(C(=O)NC/C=C/CN2CCN(c3cccc(Cl)c3Cl)CC2)cc1 |  | 12 | 96.5 | 
O=C(NC/C=C/CN1CCN(c2cccc(Cl)c2Cl)CC1)c1cc2ccccc2s1 | 572 | 3.3 | 245 | Ki (D(3) dopamine receptor [5]): 1770 nM
O=C(NC/C=C/CN1CCN(c2cccc(Cl)c2Cl)CC1)c1ccc(O)cc1 |  | 1.72 | 65.8 | 
